Holding throughout (assay type): in vivo
One assay deals with LLC cells. Briefly: Tumor growth inhibition, subcutaneous tumor formed from LLC cells. The note with it: LLC-bearing mice; LPA 3 mg/kg i.p. once daily for seven days; 5-FU 100 mg/kg i.p. once weekly, 2 times. The method, then: LLC cells (1×10^6 cells in 100 μL PBS per animal) were subcutaneously injected into C57BL/6 NCrSlc mice aged 8 weeks (females) in the same manner as in Reference Example 1. An LPA solution for administration was prepared in the same manner as in Reference Example 1. 5-FU (Kyowa Hakko Kirin Co., Ltd.) was used as an anticancer drug. 5-FU was prepared as a solution in physiological saline (Otsuka Pharmaceutical Co., Ltd.). On day 7 post-inoculation, LLC-bearing mice that had developed a tumor with a volume of 30 to 50 mm^3 were selected and subjected to the experiment. The mice were assigned to three groups: a control group, a 5-FU group and an LPA group (n=3 per group). After grouping, LPA (3 mg/kg/100 μL), 5-FU (100 mg/kg/100 μL) or PBS (100 μL) was intraperitoneally administered to the mice. The administration of LPA or PBS was performed once daily for consecutive seven days. The administration of 5-FU was performed once weekly, 2 times in total (day 7 and day 14 post-inoculation). Tumor size was measured over time after the start of the administration. Tumor volume was calculated by the following formula: length×width×height×0.5.

In assay [1] the test system is tumor blood vessels in LLC tumor-bearing mice. Briefly: Structural changes in tumor blood vessels after administration of S1P. The following applies: 0.3 mg/kg via the tail vein once daily for three days, 24 hours after final administration. On the procedure:
S1P, a lysophospholipid other than LPA, was examined for the ability to induce vascular network formation in the tumor as with LPA. LLC cells were subcutaneously inoculated into C57BL/6 […] mice aged 8 weeks (females, SLC, Inc.) in the same manner as in Reference Example 1. S1P (Avanti Polar Lipids, Inc.) was dissolved in PBS at 10 mM, and the solution was stored at -30° C. as a stock solution. Before use, the frozen stock solution was thawed and homogenized with an ultrasonic cleaner (SND Co., Ltd.) for 1 minute. The SIP solution was diluted in PBS to an appropriate concentration for administration at a dose of 0.3 mg/kg in […] PBS. LLC-bearing mice on day 9 post-inoculation (animals with a tumor volume of 60 to 80 mm^3) were subjected to the experiment. The mice were divided into two groups: a control group and an S1P group (n=3 per group). After grouping, S1P was administered via the tail vein to the mice of the S1P group at a dose of 0.3 mg/kg in 100 μL PBS once daily for consecutive three days including the day of grouping. For the control group, PBS (100 μL) was administered via the tail vein to the mice instead of S1P. At 24 hours after the final administration, the tumors were harvested from the mice, and specimens of tumor blood vessels were prepared in the same manner as in Reference Example 1. […]

Assay [2] concerns tumor blood vessels in Lewis lung cancer (LLC) tumor-bearing mice. The assay is described as follows: Structural changes in tumor blood vessels (anti-CD31 immunostaining) after administration of LPA or LPA derivative. The following applies: 3 mg/kg intraperitoneally once daily for five days, tumors harvested at 6 days, anti-CD31 staining. The method, then:
LPA or an LPA derivative was administered to tumor-bearing mice generated by subcutaneous inoculation of a mouse cancer cell line, and post-administration structural changes in tumor blood vessels were examined.
Lewis lung cancer cells (hereinafter called LLC cells) were used as the mouse cancer cell line. LLC cells (1×10^6 cells in 100 μL PBS per animal) were subcutaneously injected into C57BL/6 NCrSlc mice aged 8 weeks (females, SLC, Inc.).
The LPA used was 18:1 LPA (Avanti Polar Lipids, Inc.). The LPA derivative used was VPC31144S (N-{(1S)-2-hydroxy-1-[(phosphonooxy)methyl]ethyl} (9Z) octade c-9-enamide). A 10 mM LPA stock solution and a 10 mM VPC31144S stock solution were separately prepared using 50% ethanol and stored at −30° C. Before use, each of the frozen stock solutions was thawed and homogenized with an ultrasonic cleaner (SND Co., Ltd.) for 1 minute. The solution was diluted in PBS to an appropriate concentration for administration at a dose of 3 mg/kg in 100 μL PBS.
On day 9 post-inoculation, LLC-bearing mice that had developed a tumor with a volume of 60 to 80 mm^3 (volume=length×width×height×0.5) were selected and subjected to the experiment. The mice were assigned to three groups: a control group, an LPA group and a VPC31144S group. Each group consisted of three mice. […]

The structures appear in SMILES notation.

Take `O=c1[nH]cc(F)c(=O)[nH]1` [5-FU, reference compound]: the “inhibition of tumor growth (tumor volume) versus control group” value in the assay with LLC cells was “remarkable inhibition of tumor growth”.

`CCCCCCCCCCCCC/C=C/[C@@H](O)[C@@H](N)COP(=O)(O)O` [S1P, sphingosine-1-phosphate]: the “vascular network formation in the tumor” value in assay [1] is given as “induced vascular network formation in the tumor”.

On to `CCCCCCCC/C=C\CCCCCCCC(=O)N[C@@H](CO)COP(=O)(O)O` [VPC31144S, N-{(1S)-2-hydroxy-1-[(phosphonooxy)methyl]ethyl} (9Z) octade c-9-enamide], for which, in assay [2], the “network structure of tumor blood vessels” value is reported as “a continuous network of blood vessels was formed”.

(Values after patent US11033559B2, “Leukocyte infiltration promoting agent and antitumor immunostimulatory agent” (OSAKA UNIVERSITY, priority 2015, dated 2021).)
